In brackets after ≈: the same amount, converted by molar mass.
Columns and labels:
[1] = system: clinically important Clostridioides difficile strains; assay: MIC against clinically important Clostridioides difficile strains; type: cell-based
Protocol: (§1) The antibacterial activity of compounds 48, 50, 51, 61 and 85 against a panel of Clostridioides difficile strains was evaluated. A bacterial solution equivalent to 0.5 McFarland standard was prepared and diluted in brain heart infusion broth supplemented with hemin and vitamin K. Compounds and control drugs were added in the first row of 96-well plates and serially diluted with media containing bacteria (to achieve a concentration gradient ranging from 128 to 1 μg/mL). Plates were then incubated anaerobically at […] for 48 hours.

[2] = system: C. albicans; assay: Broth microdilution against Candida albicans; type: cell-based; conditions: gradient 128 to 1 μg/mL, 24 hours
Protocol: (§2) Method: The minimum inhibitory concentration (MIC) of the compounds and control drugs, linezolid (antibiotic), vancomycin (antibiotic), 5-fluorocytosine (5-FC, antifungal drug), and fluconazole (antifungal drug) was determined using the broth microdilution method according to the guidelines outlined by the Clinical and Laboratory Standards Institute (CLSI) against clinically relevant bacterial (methicillin-resistant Staphylococcus aureus (MRSA), vancomycin-resistant Enterococcus faecalis (VRE), vancomycin-resistant Enterococcus faecium (VRE), Clostridioides difficile and Escherichia coli) and fungal (Candida albicans) strains. A solution equivalent to 0.5 McFarland standard was prepared from each strain and diluted in cation-adjusted Mueller-Hinton broth (for S. aureus and E. coli), tryptone soy broth (for E. faecalis), or brain heart infusion broth (for E. faecium) to achieve a bacterial inoculum of about 5×10^5 CFU/mL. C. difficile strains were cultured in brain heart infusion broth supplemented with hemin and vitamin K. C. albicans was diluted in RPMI medium supplemented with 3-(N-morpholino) propanesulfonic acid to achieve a fungal concentration of about 1.5×10^3 CFU/mL. Compounds and control drugs were added in the first row of the 96-well plates and diluted with media containing bacteria (to achieve a concentration gradient ranging from 128 to 1 μg/mL). For MRSA, VRE, and E. coli strains, plates were then incubated aerobically at 37° C. for at least 18 hours. C. albicans was incubated aerobically at 37° C. for 24 hours. Plates containing C. difficile were incubated anaerobically at […] for 48 hours.

[3] = system: Ba. fragilis; assay: MIC against human normal gut microbiota: Bacteroides fragilis; type: cell-based
Description: (§3) The activity of the selected lactones against the human gut microbiota was also examined. Microbiota interfere with C. difficile's ability to colonize the gastrointestinal tract and subsequently cause infection. Many antibiotics inhibit/kill the endogenous microflora, which permits enhanced colonization by C. difficile and infection. Three different bacterial species that are present in the gut microflora were used in this experiment; Bifidobacterium (anaerobic Gram-positive bacteria), Bacteroides (anaerobic Gram-negative bacteria) and Lactobacillus (microaerophilic Gram-positive bacteria). Ideal compounds/drugs are those with selective antibacterial activity against C. difficile so as to protect the indigenous microflora present in the GI tract from being damaged/killed (which will exacerbate infections caused by C. difficile).
(§4) Bifidobacterium and Bacteroides were first grown for 48 hours at 37° C., anaerobically, using brain heart infusion supplemented (BHIS) agar (brain heart infusion agar supplemented with hemin, vitamin K and L-cysteine). Lactobacillus was cultivated on MRS agar and incubated in the presence of 5% CO2 for 48 hours at 37° C. Each bacterium was suspended in phosphate-buffered saline (PBS) to achieve 0.5 McFarland standard and subsequently diluted in brain heart infusion supplemented broth (for Bifidobacterium and Bacteroides) or in MRS broth (for Lactobacillus) to achieve a bacterial inoculum of approximately 5×10^5 CFU/mL. Bacteria were then seeded in 96-well plates containing serial dilutions of the compounds and incubated for 48 hours. MICs reported in Table 4 are the minimum concentration of compound/control drug that inhibited the visual growth of bacteria.

[4] = system: L. gasseri; assay: MIC against human normal gut microbiota: L. gasseri; type: cell-based, Lactobacillus gasseri; conditions: L. gasseri HM 407
Description: as §3, §4

[5] = system: L. reuteri; assay: MIC against human normal gut microbiota: L. reuteri; type: cell-based, Lactobacillus reuteri; conditions: L. reuteri HM 120
Description: as §3, §4

[6] = system: Bi. breve; assay: MIC against human normal gut microbiota: Bifidobacterium breve; type: cell-based; conditions: Bi. breve HM 856
Description: as §3, §4

[7] = system: Bi. longum; assay: MIC against human normal gut microbiota: Bifidobacterium longum; type: cell-based; conditions: Bi. longum HM 848
Description: as §3, §4

[8] = system: L. casei; assay: MIC against human normal gut microbiota: L. casei; type: cell-based, Lactobacillus casei; conditions: L. casei HM 334
Description: as §3, §4

[9] = system: E. faecium; assay: Broth microdilution against vancomycin-resistant E. faecium; type: cell-based, Enterococcus faecium; conditions: gradient 128 to 1 μg/mL
Protocol: as §2

[10] = system: L. crispatus; assay: MIC against human normal gut microbiota: L. crispatus; type: cell-based, Lactobacillus crispatus
Description: as §3, §4

[11] = system: E. faecalis (VRE); assay: microbe, parasite or virus in culture; type: cell-based, Enterococcus faecalis; conditions: aerobic, 37° C., at least 18 hours
Protocol: as §2

[12] = system: Ba. dorsei; assay: MIC against human normal gut microbiota: Bacteroides dorsei; type: cell-based
Description: as §3, §4

[13] = system: Clostridioides difficile; assay: MIC by broth microdilution against Clostridioides difficile (Table 1); type: cell-based; conditions: anaerobic, 48 hours; strain BAA-1870
Protocol: as §2

[14] = system: MRSA (USA300); assay: microbe, parasite or virus in culture; type: cell-based, Staphylococcus aureus; conditions: aerobic, 37° C., at least 18 hours
Protocol: as §2

[15] = system: hypervirulent Clostridioides difficile strains; assay: MIC against hypervirulent Clostridioides difficile strains; type: cell-based
Protocol: as §1

[16] = system: E. coli (TolC mutant); assay: MIC by broth microdilution against E. coli (TolC mutant); type: cell-based, Escherichia coli; conditions: aerobic, 37° C., at least 18 hours
Protocol: as §2

| Structure (SMILES) | MIC ([1]; CD strain 16) [µg/mL] | MIC ([1]; CD strain 18) [µg/mL] | MIC ([1]; CD strain 19) [µg/mL] | MIC ([1]; CD strain 1801) [µg/mL] | MIC ([1]; CD strain 43255) [µg/mL] | MIC ([1]; CD strain P6) [µg/mL] | MIC ([1]; CD strain P7) [µg/mL] | MIC ([1]; CD strain P13) [µg/mL] | MIC ([1]; CD strain P19) [µg/mL] | activity against C. albicans [2] | MIC ([3]; Ba. fragilis HM 709) [µg/mL] | MIC ([3]; Ba. fragilis HM 710) [µg/mL] | MIC ([3]; Ba. fragilis HM 711) [µg/mL] | MIC ([3]; Ba. fragilis HM 714) [µg/mL] | MIC [4] [µg/mL] | MIC [5] [µg/mL] | MIC [6] [µg/mL] | MIC [7] [µg/mL] | MIC [8] [µg/mL] | inhibition of the tested strains of E. faecium [9] | other results |
| --- | --- | --- | --- | --- | --- | --- | --- | --- | --- | --- | --- | --- | --- | --- | --- | --- | --- | --- | --- | --- | --- |
| CC(C)(C)[Si](C)(C)OCCC1OC(=O)C(CN2CCCCC2)C1c1cccc(Br)c1 (racemic) [Compound 48] | 4 (≈ 8.06 µM) | 2 (≈ 4.03 µM) | 4 (≈ 8.06 µM) | 8 (≈ 16.1 µM) | 8 (≈ 16.1 µM) | 8 (≈ 16.1 µM) | 2 (≈ 4.03 µM) | 2 (≈ 4.03 µM) | 2 (≈ 4.03 µM) | inactive | >128 | >128 | >128 | >128 | >128 | >128 | >128 | >128 | >128 | did not inhibit | MIC ([10]; L. crispatus HM 375): >128 µg/mL; MIC ([10]; L. crispatus HM 421): >128 µg/mL; MIC E. faecalis (VRE) [11]: >128 µg/mL; MIC ([12]; Ba. dorsei HM 29): >128 µg/mL; MIC ([12]; Ba. dorsei HM 717): >128 µg/mL; MIC Clostridioides difficile [13]: 8 µg/mL (≈ 16.1 µM); MIC MRSA (USA300) [14]: >128 µg/mL; MIC ([15]; CD strain 81): 16 µg/mL (≈ 32.2 µM); MIC ([15]; CD strain 82): 8 µg/mL (≈ 16.1 µM); MIC ([15]; CD strain 83): 8 µg/mL (≈ 16.1 µM); MIC ([15]; CD strain 84): 8 µg/mL (≈ 16.1 µM); MIC ([15]; CD strain 85): 8 µg/mL (≈ 16.1 µM); MIC ([15]; CD strain 86): 8 µg/mL (≈ 16.1 µM); MIC ([15]; CD strain 87): 4 µg/mL (≈ 8.06 µM); MIC ([15]; CD strain 90): 4 µg/mL (≈ 8.06 µM); MIC ([15]; CD strain 49279): 8 µg/mL (≈ 16.1 µM); MIC ([15]; CD strain 49287): 4 µg/mL (≈ 8.06 µM); MIC ([15]; CD strain 49291): 4 µg/mL (≈ 8.06 µM); MIC E. coli (TolC mutant) [16]: >128 µg/mL |
| C=C1C(=O)OC(CCCCCCCC)C1C=Cc1ccccc1 (racemic) [Compound 51] | 16 (≈ 51.2 µM) | 2 (≈ 6.4 µM) | 16 (≈ 51.2 µM) | 32 (≈ 102 µM) | 16 (≈ 51.2 µM) | 8 (≈ 25.6 µM) | 16 (≈ 51.2 µM) | 2 (≈ 6.4 µM) | 16 (≈ 51.2 µM) | inactive | >128 | >128 | >128 | >128 | >128 | >128 | >128 | >128 | >128 | did not inhibit | MIC ([10]; L. crispatus HM 375): >128 µg/mL; MIC ([10]; L. crispatus HM 421): >128 µg/mL; MIC E. faecalis (VRE) [11]: >128 µg/mL; MIC ([12]; Ba. dorsei HM 29): >128 µg/mL; MIC ([12]; Ba. dorsei HM 717): >128 µg/mL; MIC Clostridioides difficile [13]: 8 µg/mL (≈ 25.6 µM); MIC MRSA (USA300) [14]: >128 µg/mL; MIC ([15]; CD strain 81): 16 µg/mL (≈ 51.2 µM); MIC ([15]; CD strain 82): 16 µg/mL (≈ 51.2 µM); MIC ([15]; CD strain 83): 16 µg/mL (≈ 51.2 µM); MIC ([15]; CD strain 84): 64 µg/mL (≈ 205 µM); MIC ([15]; CD strain 85): 64 µg/mL (≈ 205 µM); MIC ([15]; CD strain 86): 32 µg/mL (≈ 102 µM); MIC ([15]; CD strain 87): 32 µg/mL (≈ 102 µM); MIC ([15]; CD strain 90): 4 µg/mL (≈ 12.8 µM); MIC ([15]; CD strain 49279): 16 µg/mL (≈ 51.2 µM); MIC ([15]; CD strain 49287): 8 µg/mL (≈ 25.6 µM); MIC ([15]; CD strain 49291): 8 µg/mL (≈ 25.6 µM); MIC E. coli (TolC mutant) [16]: >128 µg/mL |

From patent publication US20250195490A1, “ALPHA-METHYLENE AND AMINOMETHYL LACTONES AND LACTAMS FOR TREATMENT OF CLOSTRIDIOIDES DIFFICILE INFECTION (CDI)” (Purdue Research Foundation, priority 2022, published 2025)
